Reference: patent US20230233592A1, “PHARMACEUTICAL COMPOSITION FOR THE CHEMICAL INHIBITION OF TGS1 IN THE THERAPEUTIC TREATMENT OF TELOMEROPATHIES” (priority 2020, published 2023)
“Also recorded” adds a separate entry of the source. Read-outs that look alike come from different tables or passages of the source.

Tests used:
UMUC3 cells [1] = test: qRT-PCR analysis of hTR levels in UMUC3 cells; assay type: cell-based, human; conditions: Sinefungin 100 μM for 10 days
Procedure: (A, E) qRT-PCR analysis of levels of hTR on RNA of UMUC3 cells (A) or of the cell line HeLa PARN KO (E), treated or not with 50 μM Sinefungin for 10 days. The bars represent the variation in the levels of hTR in the treated cells and in the not treated cells, obtained by three replicates. The effects of Sinefungin were tested on the tumour cell line of UMUC3 bladder, characterized by limiting levels of hTR for the activity telomerase and by short telomeres (Xu L. & Blackburn E. H. Mol Cell 28, 2007). The UMUC3 cells were treated with Sinefungin 100 μM for 10 days, and then the levels of RNA hTR were determined. […] In order to confirm that Sinefungin is capable of striking specifically the TGS1 enzyme, a treatment with Sinefungin was tested on clones of UMUC3 cells, characterized by CRISPR-induced mutations in TGS1 (Chen et al.) (FIG. 3C), inside thereof there is a lengthening of the telomeres over time due to a deficiency of TGS1 (FIG. 3D). Control cells and mutant cells were cultivated for 46 days in presence or absence of Sinefungin.

[2] = target: T1, SET7/9 lysine methyltransferase (Mus musculus, UniProt Q8VHL1); conditions: murine model for renal fibrosis; cited from earlier work
T1 construct: host or cells: murine model of renal fibrosis
T1 sequence (Q8VHL1 1-366): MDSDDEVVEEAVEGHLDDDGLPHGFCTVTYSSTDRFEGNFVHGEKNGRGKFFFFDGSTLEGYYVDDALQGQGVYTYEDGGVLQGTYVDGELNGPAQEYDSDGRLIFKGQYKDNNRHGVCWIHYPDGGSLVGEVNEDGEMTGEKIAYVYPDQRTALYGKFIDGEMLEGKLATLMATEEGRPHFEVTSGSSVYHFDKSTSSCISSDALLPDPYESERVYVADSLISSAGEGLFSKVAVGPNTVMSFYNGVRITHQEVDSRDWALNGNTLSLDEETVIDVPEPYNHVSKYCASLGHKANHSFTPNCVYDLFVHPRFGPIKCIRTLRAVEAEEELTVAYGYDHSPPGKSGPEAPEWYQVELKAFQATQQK

Toxoplasma gondii = conditions: mice infected with Toxoplasma gondii; cited from earlier work
UMUC3 cells [3] = test: Telomere Restriction Fragment (TRF) analysis in TGS1-proficient UMUC3 cells; assay type: cell-based, human; conditions: TGS1-proficient UMUC3 cells cultivated with Sinefungin, over 15 population doublings / 46 days
Procedure: (B,D,F) Determination of the telomeric length by means of Telomere Restriction Fragment analysis (TRF, performed according to the methods described in Roake, C. M. et al. Mol Cell 74, 2019) in two cell types characterized by short telomeres: the UMUC3 tumour cell line and the HeLa cells lacking in TGS1 or deadenylase PARN. […] No lengthening of telomeres in the not-treated parental cells is observed (lanes 9-10). The effects of Sinefungin were tested on the tumour cell line of UMUC3 bladder, characterized by limiting levels of hTR for the activity telomerase and by short telomeres (Xu L. & Blackburn E. H. Mol Cell 28, 2007). The UMUC3 cells were treated with Sinefungin 100 μM for 10 days, and then the levels of RNA hTR were determined. […] In order to confirm that Sinefungin is capable of striking specifically the TGS1 enzyme, a treatment with Sinefungin was tested on clones of UMUC3 cells, characterized by CRISPR-induced mutations in TGS1 (Chen et al.) (FIG. 3C), inside thereof there is a lengthening of the telomeres over time due to a deficiency of TGS1 (FIG. 3D). Control cells and mutant cells were cultivated for 46 days in presence or absence of Sinefungin.

[4] = target: T2, recombinant TGS1 enzyme fused to protein GST (Homo sapiens, UniProt Q96RS0); test: In vitro hypermethylation assay with recombinant GST-TGS1 enzyme; assay type: biochemical; conditions: Sinefungin 100 μM; 50 μM [3H-CH3]AdoMet; 5 mM m7GTP
T2 construct: made in house; host or cells: bacterial cells
T2 sequence (Q96RS0 whole entry, the tested form may be a part): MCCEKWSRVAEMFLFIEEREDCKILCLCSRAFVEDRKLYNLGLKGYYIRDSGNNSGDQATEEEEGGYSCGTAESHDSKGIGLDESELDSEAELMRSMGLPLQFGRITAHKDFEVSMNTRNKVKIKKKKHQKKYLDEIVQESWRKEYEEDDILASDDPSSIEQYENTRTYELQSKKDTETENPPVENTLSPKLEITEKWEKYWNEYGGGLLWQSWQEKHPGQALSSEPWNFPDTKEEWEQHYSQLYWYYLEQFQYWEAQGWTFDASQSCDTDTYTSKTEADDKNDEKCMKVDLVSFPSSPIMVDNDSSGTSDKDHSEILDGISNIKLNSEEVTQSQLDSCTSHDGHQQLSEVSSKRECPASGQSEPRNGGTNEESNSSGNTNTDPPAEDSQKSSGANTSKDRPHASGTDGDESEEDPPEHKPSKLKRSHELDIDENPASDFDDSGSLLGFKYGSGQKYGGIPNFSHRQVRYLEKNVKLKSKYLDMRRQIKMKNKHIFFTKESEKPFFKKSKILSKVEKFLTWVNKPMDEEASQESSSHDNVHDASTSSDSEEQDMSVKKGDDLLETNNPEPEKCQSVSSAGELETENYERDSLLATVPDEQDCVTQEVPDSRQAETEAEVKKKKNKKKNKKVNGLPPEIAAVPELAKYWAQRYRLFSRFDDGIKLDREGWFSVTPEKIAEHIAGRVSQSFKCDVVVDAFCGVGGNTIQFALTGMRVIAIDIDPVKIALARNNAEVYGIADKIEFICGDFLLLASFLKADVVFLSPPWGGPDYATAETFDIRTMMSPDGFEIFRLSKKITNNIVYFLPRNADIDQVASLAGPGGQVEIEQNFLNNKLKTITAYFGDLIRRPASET
Procedure: Sinefungin, analogous of S-adenosyl-methionine, inhibits the reaction of hypermethylation catalyzed by TGS1. (A) In vitro assay of hypermethylation performed by incubating 1 μg of recombinant GST-TGS1 or GST with 50 μM [^3H—CH3]AdoMet (SAM) and with 5 mM m^7GTP (MMG), in presence or not of 100 μM Sinefungin. Aliquots of the reaction mixture are placed on cellulose-polyethyleneimine and the reaction products are resolved by means of TLC. The incorporation of ^3H—CHs in the methylated derivatives of MMg (DMG or TMG) is quantified by means of liquid scintillation counting. (B) Control reactions performed without protein or GST. (C) The entity of transfer of ^3H-methyl to the dinucleotide cap is shown. The Sinefungin capability of inhibiting the methyl-transferase activity of TGS1 enzyme was evaluated by means of recombinant in vitro hypermethylation assay by using recombinant TGS1 enzyme fused to protein GST. After having purified TGS1-GST from bacterial cells, still immobilized on glutathione beads, or GST alone, the assay was performed in presence or absence of Sinefungin, by using [^3H—CH3]AdoMet as methyl donor and m^7GTP (MMG) as substrate.

HeLa PARN KO cells [5] = test: Telomere Restriction Fragment (TRF) analysis in HeLa PARN KO cells; assay type: cell-based, human; conditions: 50 μM Sinefungin, 46 days
Procedure: (B,D,F) Determination of the telomeric length by means of Telomere Restriction Fragment analysis (TRF, performed according to the methods described in Roake, C. M. et al. Mol Cell 74, 2019) in two cell types characterized by short telomeres: the UMUC3 tumour cell line and the HeLa cells lacking in TGS1 or deadenylase PARN. (F) HeLa PARN KO cells were treated or not with 50 μM of Sinefungin for the period of time indicated in culture. Due to the reduced levels of RNA component of telomerase, the average telomeric length is shorter in the PARN KO cells (lane 13) rather than in the parental HeLa cell line. (4.5 kb vs 7.5 kb). […] The effects of Sinefungin were tested on mutant HeLa cells for PARN deadenylase (PARN KO) enzyme, one of the causative factors of congenital dyskeratosis (Tummala et al., 2015) (Roake C. M. et al. Mol cell 74, 2019). PARN KO cells, obtained in the laboratory of […] (Stanford University), are characterized by short telomeres, due to the reduced levels of RNA component of telomerase.

[6] = high doses, goats; cited from earlier work
[7] = tested on: fungal cap methyltransferase enzyme; conditions: Chrebet et al. 2005; cited from earlier work
RNA hypermethylase TGS1 = RNA hypermethylase TGS1 (Homo sapiens, UniProt Q96RS0); conditions: Yedavalli & Jeang 2010; cited from earlier work
Sequence of RNA hypermethylase TGS1 (Q96RS0 whole entry): as the sequence (Q96RS0 whole entry, the tested form may be a part) above

HeLa PARN KO cells [8] = test: qRT-PCR analysis of hTR levels in HeLa PARN KO cells; assay type: cell-based, human; conditions: 50 μM Sinefungin, 10 days
Procedure: (A, E) qRT-PCR analysis of levels of hTR on RNA of UMUC3 cells (A) or of the cell line HeLa PARN KO (E), treated or not with 50 μM Sinefungin for 10 days. The bars represent the variation in the levels of hTR in the treated cells and in the not treated cells, obtained by three replicates. The effects of Sinefungin were tested on mutant HeLa cells for PARN deadenylase (PARN KO) enzyme, one of the causative factors of congenital dyskeratosis (Tummala et al., 2015) (Roake C. M. et al. Mol cell 74, 2019). PARN KO cells, obtained in the laboratory of […] (Stanford University), are characterized by short telomeres, due to the reduced levels of RNA component of telomerase.

[9] = high doses, dogs; cited from earlier work
Leishmania = conditions: cited from earlier work

## Sinefungin
UMUC3 cells [1]
  increase in the levels of hTR: 1.5 times
[2]
  renal fibrosis pathology: an improvement in the pathology
Toxoplasma gondii
  survival of infected mice: increased the survival of mice
UMUC3 cells [3]
  telomere length (TRF): A lengthening of telomeres takes place in the treated control cells; also recorded: a lengthening of the telomeres was observed
[4]
  methyl-transferase activity of TGS1 (3H-methyl transfer to m7GTP, TLC / liquid scintillation): inhibit the methyl-transferase activity of TGS1
HeLa PARN KO cells [5]
  telomere length (TRF): a lengthening of telomeres; also recorded: a substantial increase in the telomere length
[6]
  nephrotoxicity: nephrotoxic effects were detected
[7]
  inhibition of fungal cap methyltransferase with respect to the human ortholog: ten times more effectively
RNA hypermethylase TGS1
  inhibition of TGS1 in human cells: inhibits RNA hypermethylase TGS1
HeLa PARN KO cells [8]
  levels of hTR: a significative increase in the levels of hTR
[9]
  nephrotoxicity: nephrotoxic effects were detected
Leishmania; mice infected with various isolates of Leishmania
  survival of infected mice: increased the survival of mice
Leishmania; mouse, in vivo
  toxic effects in infected mice: without showing clinically detectable toxic effects
